Molecules are shown by their SMILES. Active and inactive are the calls of the source. The calls are words filed in the database; no cut-off is given here. Some results are limits rather than exact numbers.

These results are taken from ChEMBL document CHEMBL1914417 (Bioorg Med Chem Lett, 2011).

Data set [1] has as its target T1, Muscarinic acetylcholine receptor M1 (Rattus norvegicus) (UniProt P08482).
T1 sequence (whole entry): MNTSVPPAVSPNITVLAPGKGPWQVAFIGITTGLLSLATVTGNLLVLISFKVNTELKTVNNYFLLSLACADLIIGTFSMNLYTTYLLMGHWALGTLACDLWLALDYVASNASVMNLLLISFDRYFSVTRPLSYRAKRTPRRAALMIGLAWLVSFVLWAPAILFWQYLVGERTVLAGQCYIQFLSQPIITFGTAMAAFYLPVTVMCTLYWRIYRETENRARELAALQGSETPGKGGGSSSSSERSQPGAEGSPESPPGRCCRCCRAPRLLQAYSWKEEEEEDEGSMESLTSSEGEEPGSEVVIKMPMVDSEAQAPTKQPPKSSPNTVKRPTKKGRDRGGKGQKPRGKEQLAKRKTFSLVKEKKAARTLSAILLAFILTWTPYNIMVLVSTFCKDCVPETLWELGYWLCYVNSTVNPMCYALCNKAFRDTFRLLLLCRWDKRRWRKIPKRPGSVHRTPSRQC
Briefly: Agonist activity at rat muscarinic M1 receptor expressed in CHO cells at 10 uM. It is filed as functional, cell-based.

The next data set deals with hERG (KCNH2) (Homo sapiens, UniProt Q12809). Briefly: Inhibition of human ERG at 10 uM.
Data set [2] in a line: Potentiation of NMDA receptor-induced current in hippocampal CA1 pyramidal cells at 30 uM. It is filed as tissue-based. To be noted: Hippocampus.
Data set [3] relates to Plasma. Briefly: Fraction unbound in human plasma. Type of data set: ADME, cell-free.
Data set [4] deals with Plasma. Briefly: Fraction unbound in rat plasma. Type of data set: ADME, cell-free.
The target in another data set is T2, Cytochrome P450 1A2 (Homo sapiens, UniProt P05177).
T2 sequence (P05177 whole entry): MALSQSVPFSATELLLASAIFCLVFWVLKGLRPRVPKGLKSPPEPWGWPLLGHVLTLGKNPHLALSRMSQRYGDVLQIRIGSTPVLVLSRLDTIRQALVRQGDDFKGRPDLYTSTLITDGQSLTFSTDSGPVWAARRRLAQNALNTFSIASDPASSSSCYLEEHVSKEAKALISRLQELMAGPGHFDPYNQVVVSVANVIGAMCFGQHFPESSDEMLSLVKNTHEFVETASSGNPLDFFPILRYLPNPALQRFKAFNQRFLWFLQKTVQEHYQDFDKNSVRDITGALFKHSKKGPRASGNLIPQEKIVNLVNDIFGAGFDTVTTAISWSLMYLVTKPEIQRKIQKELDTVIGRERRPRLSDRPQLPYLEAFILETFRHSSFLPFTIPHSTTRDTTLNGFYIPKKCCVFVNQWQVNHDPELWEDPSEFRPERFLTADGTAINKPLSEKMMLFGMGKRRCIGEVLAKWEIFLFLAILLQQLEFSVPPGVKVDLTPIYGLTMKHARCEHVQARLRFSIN
Briefly: Inhibition of CYP1A2. Type of data set: ADME.

Another data set concerns the target Cytochrome P450 2D6 (Homo sapiens, UniProt P10635). Briefly: Inhibition of CYP2D6. Type of data set: ADME.
Data set [5] in a line: Clearance in rat at 1 mg/kg, iv and 10 mg/kg, po. It is filed as ADME, organism-based. To be noted: in vivo.
Data set [6] can be described thus: Volume of distribution at steady state in rat 1 mg/kg, iv and 10 mg/kg, po. It is filed as ADME, organism-based. The following applies: in vivo, read-out: Vdss.
Data set [7] can be described thus: Half life in rat 1 mg/kg, iv and 10 mg/kg, po. Type of data set: ADME, organism-based. To be noted: in vivo.
In the next data set the test system is Rattus norvegicus. Briefly: Oral bioavailability in rat 10 mg/kg. Type of data set: ADME, organism-based. To be noted: in vivo.
A short description of data set [8]: AUC in rat at 1 mg/kg, iv. It is filed as ADME, organism-based. The following applies: plasma. Set-up: dose 1 mg/kg, route intravenous.
The nature of data set [9]: Plasma concentration in Sprague-Dawley rat at 10 mg/kg, po after 90 mins. Set-up: dose 10 mg/kg, route oral. Type of data set: ADME, organism-based.
A short description of data set [10]: Drug uptake in Sprague-Dawley rat brain at 10 mg/kg, po after 90 mins. Details: dose 10 mg/kg, route oral. To be noted: read-out: Drug uptake. Type of data set: ADME, organism-based.
Data set [11] can be described thus: Ratio of AUC in brain to AUC in blood in Sprague-Dawley rat at 10 mg/kg, po after 90 mins. Type of data set: ADME, organism-based. The following applies: read-out: BPR. Set-up: dose 10 mg/kg, route oral.

Sequence of hERG (KCNH2) (Q12809 whole entry): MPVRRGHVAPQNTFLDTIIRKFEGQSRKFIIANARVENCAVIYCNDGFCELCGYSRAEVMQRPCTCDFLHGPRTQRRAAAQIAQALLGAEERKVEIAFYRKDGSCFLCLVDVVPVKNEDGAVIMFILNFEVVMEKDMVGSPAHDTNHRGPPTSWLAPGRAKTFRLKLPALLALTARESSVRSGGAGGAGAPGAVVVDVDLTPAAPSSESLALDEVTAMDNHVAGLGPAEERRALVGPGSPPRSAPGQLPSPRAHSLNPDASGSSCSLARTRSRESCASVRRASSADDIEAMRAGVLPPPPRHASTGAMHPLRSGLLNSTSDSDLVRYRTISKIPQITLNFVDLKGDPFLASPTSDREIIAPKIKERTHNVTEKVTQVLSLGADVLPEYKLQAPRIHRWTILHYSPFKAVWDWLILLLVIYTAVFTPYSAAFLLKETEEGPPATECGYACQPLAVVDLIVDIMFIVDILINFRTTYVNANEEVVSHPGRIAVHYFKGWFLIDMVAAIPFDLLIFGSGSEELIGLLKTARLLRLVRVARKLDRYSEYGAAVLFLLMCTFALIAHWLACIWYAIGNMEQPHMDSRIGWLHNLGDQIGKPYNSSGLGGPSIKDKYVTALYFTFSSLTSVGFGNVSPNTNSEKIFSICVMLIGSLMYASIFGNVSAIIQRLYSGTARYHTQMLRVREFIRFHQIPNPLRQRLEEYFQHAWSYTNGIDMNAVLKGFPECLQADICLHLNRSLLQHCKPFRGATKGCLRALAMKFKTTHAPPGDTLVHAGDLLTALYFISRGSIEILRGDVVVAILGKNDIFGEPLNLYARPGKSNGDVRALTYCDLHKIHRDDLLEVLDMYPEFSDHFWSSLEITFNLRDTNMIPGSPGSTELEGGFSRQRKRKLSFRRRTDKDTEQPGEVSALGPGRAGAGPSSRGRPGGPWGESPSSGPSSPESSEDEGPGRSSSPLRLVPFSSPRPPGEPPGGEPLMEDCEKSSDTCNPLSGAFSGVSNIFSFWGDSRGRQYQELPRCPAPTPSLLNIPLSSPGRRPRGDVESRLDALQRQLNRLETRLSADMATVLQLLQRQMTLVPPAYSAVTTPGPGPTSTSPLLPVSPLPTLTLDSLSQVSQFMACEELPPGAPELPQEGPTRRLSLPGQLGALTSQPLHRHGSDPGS
Sequence of Cytochrome P450 2D6 (P10635 whole entry): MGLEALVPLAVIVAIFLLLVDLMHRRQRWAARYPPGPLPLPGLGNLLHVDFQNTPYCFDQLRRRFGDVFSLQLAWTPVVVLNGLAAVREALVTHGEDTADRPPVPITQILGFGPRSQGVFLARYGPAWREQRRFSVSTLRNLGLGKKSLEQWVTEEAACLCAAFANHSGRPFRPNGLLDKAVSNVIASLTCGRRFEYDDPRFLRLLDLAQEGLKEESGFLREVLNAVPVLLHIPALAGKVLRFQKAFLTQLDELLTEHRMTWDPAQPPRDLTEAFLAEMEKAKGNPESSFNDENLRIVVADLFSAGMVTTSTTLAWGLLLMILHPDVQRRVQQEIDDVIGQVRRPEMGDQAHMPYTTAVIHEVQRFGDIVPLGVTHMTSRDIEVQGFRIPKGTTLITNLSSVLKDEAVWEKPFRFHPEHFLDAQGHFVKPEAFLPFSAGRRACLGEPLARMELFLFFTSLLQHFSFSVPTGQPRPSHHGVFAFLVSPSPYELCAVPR

Broadly, the inhibition is the share of the control response that was lost under treatment. Low readings indicate a response near the control, high ones a response far below the control. The IC50 is the point on the concentration scale where inhibition reaches its midpoint. As usually defined, the half-life is the time in which the quantity being followed falls by half. What is called AUC is the area under the concentration-time curve, a measure of exposure. Read a high AUC as high exposure. For `CCOC(=O)N1CCC(N2CCC[C@@H](NC(=O)c3ccccc3C)C2)CC1`, the activation result in data set [1] is “Active”. Further, testing at 10 µM on hERG (KCNH2) gave an inhibition of 22%. The result in data set [2] was Active. For the same compound, the Fu is given as 5.8% with Plasma [3] and 14.9% with Plasma [4]. Moreover, the IC50 on Cytochrome P450 1A2 and against Cytochrome P450 2D6 was > 25 µM each time. Besides, the clearance in data set [5] was 14.7 mL/min/kg. Moreover, in data set [6], the Vd turned out to be 0.98 L/kg. Also, in data set [7], the half-life was 46 min. Moreover, the F in the data set on Rattus norvegicus is listed as 37%. The same compound gave an AUC in [8] of 1100 ng·h/mL. For the same compound, the figures for the concentration at 1.5 h in data set [9] and in [10] were 1450 nM and 1890 nM, respectively. Besides, the Kp at 1.5 h in [11] worked out at 1.35.
